Measurements published in the supplement of paper PMC10307832.

Columns and labels:
Test in all cases: relative viability (nuclei count vs DMSO), 5 days (fraction); higher = more cells survive
[1] = compound: N#CC1(c2ccc(NC(=O)c3cccnc3NCc3ccncc3)cc2)CCCC1 [Apatinib] + CCNC(=O)c1noc(-c2cc(C(C)C)c(O)cc2O)c1-c1ccc(CN2CCOCC2)cc1 [Luminespib] (partner 0.01 µM)
Procedure, shortened: (§1)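 Five library-drug doses in √10 steps were combined with a fixed anchor-drug dose, or a single drug was given alone, by pin tool to lung cancer cell lines in 1536-well plates the day after seeding. Nuclei were stained and counted after 5 days. Relative viability is the nuclei count in treated wells over that in vehicle wells, taken as the median of duplicate plates.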

[2] = compound: N#CC1(c2ccc(NC(=O)c3cccnc3NCc3ccncc3)cc2)CCCC1 [Apatinib] + Cc1cc(Nc2cc(N3CCN(C)CC3)nc(Sc3ccc(NC(=O)C4CC4)cc3)n2)n[nH]1 [Tozasertib] (partner 0.1 µM)
Procedure, shortened: as §1

[3] = compound: CN(C)C(=N)NC(=N)N [Metformin] + O=C(CCCCCCC(=O)Nc1ccccc1)NO [Vorinostat] (partner 1 µM)
Procedure, shortened: as §1

[4] = compound: N#CC1(c2ccc(NC(=O)c3cccnc3NCc3ccncc3)cc2)CCCC1 [Apatinib] + O=C(c1cc(Cc2n[nH]c(=O)c3ccccc23)ccc1F)N1CCN(C(=O)C2CC2)CC1 [Olaparib] (partner 8 µM)
Procedure, shortened: as §1

Row | Cell Line | relative viability ([1]; first compound 0.08 µM) | relative viability ([1]; first compound 0.253 µM) | relative viability ([1]; first compound 0.8 µM) | relative viability ([1]; first compound 2.53 µM) | relative viability ([1]; first compound 8 µM) | relative viability ([2]; first compound 0.08 µM) | relative viability ([2]; first compound 0.253 µM) | relative viability ([2]; first compound 0.8 µM) | relative viability ([2]; first compound 2.53 µM) | relative viability ([2]; first compound 8 µM) | relative viability ([3]; first compound 10 µM) | relative viability ([3]; first compound 31.62 µM) | relative viability ([3]; first compound 100 µM) | relative viability ([3]; first compound 316.23 µM) | relative viability ([3]; first compound 1000 µM) | relative viability ([4]; first compound 0.08 µM) | relative viability ([4]; first compound 0.253 µM) | relative viability ([4]; first compound 0.8 µM) | relative viability ([4]; first compound 2.53 µM) | relative viability ([4]; first compound 8 µM)
1 | BEN | 0.478 | 0.348 | 0.385 | 0.336 | 0.229 | 0.551 | 0.601 | 0.492 | 0.452 | 0.42 | 0.56 | 0.728 | 0.64 | 0.494 | 0.625 | 1.35 | 1.24 | 1.13 | 0.987 | 0.774
2 | EMC-BAC-2 | 1.22 | 1.29 | 1.14 | 1.09 | 0.987 | 0.334 | 0.307 | 0.245 | 0.229 | 0.194 | 0.474 | 0.417 | – | 0.492 | 0.37 | 0.57 | 0.507 | 0.44 | 0.363 | 0.319
3 | NCI-H1355 | 0.672 | 0.809 | 0.761 | 0.647 | 0.563 | 0.576 | 0.611 | 0.474 | 0.33 | 0.217 | 0.597 | 0.522 | 0.632 | 0.589 | 0.609 | 0.787 | 0.798 | 0.745 | 0.647 | 0.616
4 | SW 900 | 0.171 | 0.178 | 0.175 | 0.185 | 0.177 | 0.504 | 0.54 | 0.442 | 0.323 | 0.2 | 0.548 | 0.765 | – | 0.457 | 0.682 | 0.974 | 0.823 | 0.842 | 0.714 | 0.606
5 | A-427 | 0.924 | 0.779 | 0.928 | 0.72 | 0.8 | 0.178 | 0.241 | 0.175 | 0.188 | 0.147 | 0.848 | 0.863 | 0.827 | 0.819 | 0.776 | 0.66 | 0.71 | 0.73 | 0.641 | 0.612
6 | NCI-H1793 | 0.185 | 0.183 | 0.157 | 0.172 | 0.193 | 0.38 | 0.369 | 0.245 | 0.209 | 0.226 | 0.943 | 0.832 | 0.727 | 0.662 | 1.02 | 0.959 | 0.897 | 0.813 | 0.798 | 0.555
7 | NCI-H1563 | 0.534 | 0.536 | 0.533 | 0.548 | 0.543 | – | – | – | – | – | – | – | – | – | – | – | – | – | – | –
8 | EBC-1 | – | – | – | – | – | – | – | – | – | – | – | – | – | – | – | 0.76 | 0.698 | 0.65 | 0.588 | 0.472
9 | NCI-H596 | 1.09 | 1.2 | 0.926 | 0.97 | 0.903 | 1.05 | 0.965 | 0.854 | 0.705 | 0.631 | 0.691 | 0.854 | 0.674 | 0.596 | 0.784 | 0.822 | 0.73 | 0.722 | 0.65 | 0.634
10 | NCI-H2228 | 0.126 | 0.122 | 0.129 | 0.13 | 0.126 | 0.268 | 0.221 | 0.225 | 0.164 | 0.0952 | 0.843 | 0.672 | 0.825 | 0.597 | 0.635 | 0.837 | 0.754 | 0.456 | 0.58 | 0.323
11 | NCI-H661 | 0.973 | 0.873 | 0.898 | 0.95 | 0.865 | 0.333 | 0.325 | 0.357 | 0.388 | 0.392 | 0.851 | 0.928 | 0.927 | 0.818 | 0.82 | 0.719 | 0.726 | 0.724 | 0.687 | 0.641
12 | 201T | 0.983 | 1.02 | 1.12 | 1 | 0.855 | 0.96 | 0.878 | 0.897 | 0.808 | 0.615 | – | 1.02 | 0.972 | 0.98 | 1.03 | 0.872 | 0.817 | 0.789 | 0.9 | 0.749
13 | HARA | 0.928 | 0.875 | 0.419 | 0.6 | 0.678 | 0.119 | 0.129 | 0.121 | 0.0894 | 0.0993 | 0.419 | 0.587 | 0.39 | 0.382 | 0.445 | 0.761 | 0.582 | 0.848 | – | 0.706
14 | NCI-H3122 | 0.0784 | 0.0827 | 0.0738 | 0.0782 | 0.0871 | 0.551 | 0.368 | 0.432 | 0.374 | 0.367 | 0.459 | 0.942 | 0.87 | 0.807 | 0.775 | 0.609 | 0.655 | 0.525 | 0.613 | 0.597
15 | NCI-H1651 | 0.981 | 1.12 | 0.855 | 0.579 | 0.652 | 0.753 | 0.756 | 0.717 | 0.34 | 0.362 | 0.505 | 0.652 | 0.568 | 0.614 | 0.608 | 0.192 | 0.206 | 0.186 | 0.17 | 0.172
16 | SK-MES-1 | 0.732 | 0.796 | 0.701 | 0.727 | 0.795 | 0.972 | 0.928 | 0.729 | 0.77 | 0.484 | 0.839 | 1.03 | 1.11 | 0.919 | 0.99 | 0.858 | 0.665 | 0.627 | 0.592 | 0.411
17 | NCI-H1648 | – | – | – | – | – | 0.484 | 0.346 | 0.563 | 0.366 | 0.197 | – | 0.5 | 1.07 | 0.703 | 0.91 | 0.934 | 0.854 | 0.761 | 0.501 | 0.433
18 | A549 | – | – | – | – | – | – | – | – | – | – | – | – | – | – | – | 0.329 | 0.382 | 0.414 | 0.367 | 0.302
19 | HCC-78 | – | – | – | – | – | 0.477 | 0.333 | 0.535 | 0.289 | 0.317 | – | 0.479 | 0.559 | 0.516 | 0.417 | 0.803 | 0.696 | 0.878 | 0.711 | 0.768
20 | NCI-H1299 | – | – | – | – | – | – | – | – | – | – | – | – | – | – | – | 1.03 | 1.01 | 0.927 | 0.873 | 0.638
